Results as given in patent US20120202690A1, “HERBICIDAL COMPOUNDS” (SYNGENTA LIMITED, priority 2009, published 2012).

How the values were obtained:
Type in all cases: in vivo
Setaria faberi (SETFA) [1] = test: Pre-emergence biological efficacy, glasshouse, 1000 g/ha, evaluated after 13 days (100=total damage to plant; 0=no damage to plant); conditions: rate 1,000 g/ha; for pest or weed control at 1000 g/ha: Setaria faberi, 312 h, read-out: Percentage damage caused to weed species, pre-emergence, SETFA
In short: (§1)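 Seeds were sown in standard soil in pots, then grown in a controlled glasshouse at 24/16° C. day/night, 14 hours light and 65% humidity, with watering twice daily.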

[2] = tested on: Ipomoea hederaceae (IPOHE); test: as above; conditions: rate 1,000 g/ha; for pest or weed control at 1000 g/ha: Ipomoea, 312 h, read-out: Percentage damage caused to weed species, pre-emergence, IPOHE
In short: as §1

[3] = tested on: Echinochloa crus-galli (ECHCG); test: as above; conditions: rate 1,000 g/ha; for pest or weed control at 1000 g/ha: Echinochloa crus-galli, 312 h, read-out: Percentage damage caused to weed species, pre-emergence, ECHCG
In short: as §1

[4] = tested on: Alopecurus myosuroides (ALOMY); test: as above; conditions: rate 1,000 g/ha; for pest or weed control at 1000 g/ha: Alopecurus myosuroides, 312 h, read-out: Percentage damage caused to weed species, pre-emergence, ALOMY
In short: as §1

[5] = tested on: Amaranthus retroflexus (AMARE); test: as above; conditions: rate 1,000 g/ha; for pest or weed control at 1000 g/ha: Amaranthus retroflexus, 312 h, read-out: Percentage damage caused to weed species, pre-emergence, AMARE
In short: as §1

Solanum nigrum (SOLNI) [6] = test: as above; conditions: rate 1,000 g/ha; for pest or weed control at 1000 g/ha: Solanum nigrum, 312 h, read-out: Percentage damage caused to weed species, pre-emergence, SOLNI
In short: as §1

Setaria faberi (SETFA) [7] = test: Post-emergence biological efficacy, glasshouse, 500 or 1000 g/ha, evaluated after 13 days (100=total damage to plant; 0=no damage to plant); conditions: rate 1,000 g/ha; for pest or weed control at 1000 g/ha: Setaria faberi, 312 h, read-out: Percentage damage caused to weed species, post-emergence, SETFA
In short: (§2)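 Plants raised from seed in pots of standard soil receive the spray after emergence. They then grow on under controlled glasshouse conditions (24/16° C. day/night, 14 hours light, 65% humidity) and are watered twice a day.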

[8] = tested on: Echinochloa crusgaffi (ECHCG); test: as above; conditions: rate 1,000 g/ha; for pest or weed control at 1000 g/ha: Echinochloa, 312 h, read-out: Percentage damage caused to weed species, post-emergence, ECHCG
In short: as §2

[9] = tested on: Ipomoea hederaceae (IPOHE); test: as above; conditions: rate 1,000 g/ha; for pest or weed control at 1000 g/ha: Ipomoea, 312 h, read-out: Percentage damage caused to weed species, post-emergence, IPOHE
In short: as §2

[10] = tested on: Alopecurus myosuroides (ALOMY); test: as above; conditions: rate 1,000 g/ha; for pest or weed control at 1000 g/ha: Alopecurus myosuroides, 312 h, read-out: Percentage damage caused to weed species, post-emergence, ALOMY
In short: as §2

[11] = tested on: Amaranthus retroflexus (AMARE); test: as above; conditions: rate 1,000 g/ha; for pest or weed control at 1000 g/ha: Amaranthus retroflexus, 312 h, read-out: Percentage damage caused to weed species, post-emergence, AMARE
In short: as §2

Solanum nigrum (SOLNI) [12] = test: as above; conditions: rate 1,000 g/ha; for pest or weed control at 1000 g/ha: Solanum nigrum, 312 h, read-out: Percentage damage caused to weed species, post-emergence, SOLNI
In short: as §2

With `COC(=O)c1nc(-c2ccc(Cl)c(OC)c2F)nc2c1OCCN2C` [Compound 106-74, 2-(4-Chloro-2-fluoro-3-methoxyphenyl)-4-methoxycarbonyl-8-methyl-7,8-dihydro-6H-pyrimido[5,4-b][1,4]oxazine] as the molecule, how does the pest or weed control at 1000 g/ha (Setaria faberi (SETFA) [1]) read?
The pest or weed control at 1000 g/ha was 0%.

And the pest or weed control at 1000 g/ha [2]?
Its pest or weed control at 1000 g/ha is 0%.

What about the pest or weed control at 1000 g/ha [3] of the same molecule?
The pest or weed control at 1000 g/ha was 0%.

What about the pest or weed control at 1000 g/ha [4] of the same molecule?
The pest or weed control at 1000 g/ha was 0%.

What about the pest or weed control at 1000 g/ha [5] of the same molecule?
The pest or weed control at 1000 g/ha was 0%.

What about the pest or weed control at 1000 g/ha (Solanum nigrum (SOLNI) [6]) of the same molecule?
Its pest or weed control at 1000 g/ha is 0%.

What about the pest or weed control at 1000 g/ha (Setaria faberi (SETFA) [7]) of the same molecule?
Its pest or weed control at 1000 g/ha is 0%.

What about the pest or weed control at 1000 g/ha [8] of the same molecule?
Its pest or weed control at 1000 g/ha is 0%.

And the pest or weed control at 1000 g/ha [9]?
Its pest or weed control at 1000 g/ha is 0%.

And the pest or weed control at 1000 g/ha [10]?
Its pest or weed control at 1000 g/ha is 0%.

And the pest or weed control at 1000 g/ha [11]?
Its pest or weed control at 1000 g/ha is 0%.

And the pest or weed control at 1000 g/ha (Solanum nigrum (SOLNI) [12])?
The pest or weed control at 1000 g/ha was 0%.

With `COC(=O)c1nc(-c2ccc(Cl)c(F)c2)nc2[nH]c(C)c(C)c12` [Compound 1-24, 2-(4-chloro-3-fluorophenyl)-5,6-dimethyl-4-methoxycarbonyl-7H-pyrrolo[2,3-d]pyrimidine] as the molecule, how does the pest or weed control at 1000 g/ha (Setaria faberi (SETFA) [1]) read?
The pest or weed control at 1000 g/ha was 0%.

And the pest or weed control at 1000 g/ha [2]?
The pest or weed control at 1000 g/ha was 0%.

What about the pest or weed control at 1000 g/ha [3] of the same molecule?
Its pest or weed control at 1000 g/ha is 0%.

What about the pest or weed control at 1000 g/ha [4] of the same molecule?
The pest or weed control at 1000 g/ha was 0%.

And the pest or weed control at 1000 g/ha [5]?
Its pest or weed control at 1000 g/ha is 0%.

What about the pest or weed control at 1000 g/ha (Solanum nigrum (SOLNI) [6]) of the same molecule?
The pest or weed control at 1000 g/ha was 0%.

What about the pest or weed control at 1000 g/ha (Setaria faberi (SETFA) [7]) of the same molecule?
The pest or weed control at 1000 g/ha was 0%.

What about the pest or weed control at 1000 g/ha [8] of the same molecule?
The pest or weed control at 1000 g/ha was 0%.

What about the pest or weed control at 1000 g/ha [9] of the same molecule?
The pest or weed control at 1000 g/ha was 20%.

What about the pest or weed control at 1000 g/ha [10] of the same molecule?
Its pest or weed control at 1000 g/ha is 0%.

What about the pest or weed control at 1000 g/ha [11] of the same molecule?
Its pest or weed control at 1000 g/ha is 10%.

And the pest or weed control at 1000 g/ha (Solanum nigrum (SOLNI) [12])?
Its pest or weed control at 1000 g/ha is 50%.

What does the source list for `O=C(O)c1nc(-c2ccc(Cl)c(F)c2)nc2c1ccn2Cc1ccccc1[N+](=O)[O-]` [Compound 8-17, 4-Carboxy-2-(4-chloro-3-fluorophenyl)-7-(2-nitropheny-methyl)-7H-pyrrolo[2,3-d]pyrimidine]?
pest or weed control at 1000 g/ha (Setaria faberi (SETFA) [1]): 0%; pest or weed control at 1000 g/ha [2]: 0%; pest or weed control at 1000 g/ha [3]: 0%; pest or weed control at 1000 g/ha [4]: 0%; pest or weed control at 1000 g/ha [5]: 0%; pest or weed control at 1000 g/ha (Solanum nigrum (SOLNI) [6]): 0%; pest or weed control at 1000 g/ha (Setaria faberi (SETFA) [7]): 0%; pest or weed control at 1000 g/ha [8]: 0%; pest or weed control at 1000 g/ha [9]: 50%; pest or weed control at 1000 g/ha [10]: 0%; pest or weed control at 1000 g/ha [11]: 20%; pest or weed control at 1000 g/ha (Solanum nigrum (SOLNI) [12]): 50%

For `CCCCCCCCOC(=O)c1nc(-c2ccc(Cl)c(OC)c2F)cc2[nH]cc(C)c12` [Compound 22-77], which “Percentage damage caused to weed species, pre-emergence, SETFA” value (Setaria faberi (SETFA) [1]) is on record?
Its value is 20%.

And the “Percentage damage caused to weed species, pre-emergence, IPOHE” value [2]?
Its value is 90%.

What about the “Percentage damage caused to weed species, pre-emergence, ECHCG” value [3] of the same molecule?
The value was 0%.

What about the “Percentage damage caused to weed species, pre-emergence, ALOMY” value [4] of the same molecule?
Its value is 10%.

And the “Percentage damage caused to weed species, pre-emergence, AMARE” value [5]?
The value was 20%.

What about the “Percentage damage caused to weed species, pre-emergence, SOLNI” value (Solanum nigrum (SOLNI) [6]) of the same molecule?
The value was 80%.

What about the “Percentage damage caused to weed species, post-emergence, SETFA” value (Setaria faberi (SETFA) [7]) of the same molecule?
The value was 0%.

And the “Percentage damage caused to weed species, post-emergence, ECHCG” value [8]?
Its value is 0%.

What about the “Percentage damage caused to weed species, post-emergence, IPOHE” value [9] of the same molecule?
The value was 30%.

What about the “Percentage damage caused to weed species, post-emergence, ALOMY” value [10] of the same molecule?
Its value is 10%.

And the “Percentage damage caused to weed species, post-emergence, AMARE” value [11]?
Its value is 70%.

And the “Percentage damage caused to weed species, post-emergence, SOLNI” value (Solanum nigrum (SOLNI) [12])?
Its value is 90%.

How did the pest or weed control at 1000 g/ha (Setaria faberi (SETFA) [1]) turn out when `COC(=O)c1nc(-c2ccc(Cl)c(F)c2)nc2c1ccn2Cc1ccco1` [Compound 11-18, 2-(4-Chloro-3-fluorophenyl)-7-(2-furanyl-methyl)-4-methoxycarbonyl-7H-pyrrolo[2,3-d]pyrimidine] was run?
Its pest or weed control at 1000 g/ha is 0%.

And the pest or weed control at 1000 g/ha [2]?
The pest or weed control at 1000 g/ha was 0%.

What about the pest or weed control at 1000 g/ha [3] of the same molecule?
The pest or weed control at 1000 g/ha was 0%.

What about the pest or weed control at 1000 g/ha [4] of the same molecule?
The pest or weed control at 1000 g/ha was 0%.

And the pest or weed control at 1000 g/ha [5]?
Its pest or weed control at 1000 g/ha is 0%.

And the pest or weed control at 1000 g/ha (Solanum nigrum (SOLNI) [6])?
Its pest or weed control at 1000 g/ha is 0%.

And the pest or weed control at 1000 g/ha (Setaria faberi (SETFA) [7])?
Its pest or weed control at 1000 g/ha is 0%.

What about the pest or weed control at 1000 g/ha [8] of the same molecule?
The pest or weed control at 1000 g/ha was 0%.

What about the pest or weed control at 1000 g/ha [9] of the same molecule?
The pest or weed control at 1000 g/ha was 20%.

What about the pest or weed control at 1000 g/ha [10] of the same molecule?
Its pest or weed control at 1000 g/ha is 0%.

What about the pest or weed control at 1000 g/ha [11] of the same molecule?
The pest or weed control at 1000 g/ha was 0%.

And the pest or weed control at 1000 g/ha (Solanum nigrum (SOLNI) [12])?
The pest or weed control at 1000 g/ha was 50%.
